Earlier results as cited in paper PMC10893631, “Receptor-based pharmacophore modeling, molecular docking, synthesis and biological evaluation of novel VEGFR-2, FGFR-1, and BRAF multi-kinase inhibitors” (BMC Chemistry, 2024).
pKi: −log10 of the molar value.

Molecular target: T1, VEGFR-2 (Homo sapiens, UniProt P35968)
T1 construct: purchased BPS Biosciences 40325
Set-up: method as in PMID 17696416
Settings: cited from earlier work

T1 sequence (P35968 20-1356): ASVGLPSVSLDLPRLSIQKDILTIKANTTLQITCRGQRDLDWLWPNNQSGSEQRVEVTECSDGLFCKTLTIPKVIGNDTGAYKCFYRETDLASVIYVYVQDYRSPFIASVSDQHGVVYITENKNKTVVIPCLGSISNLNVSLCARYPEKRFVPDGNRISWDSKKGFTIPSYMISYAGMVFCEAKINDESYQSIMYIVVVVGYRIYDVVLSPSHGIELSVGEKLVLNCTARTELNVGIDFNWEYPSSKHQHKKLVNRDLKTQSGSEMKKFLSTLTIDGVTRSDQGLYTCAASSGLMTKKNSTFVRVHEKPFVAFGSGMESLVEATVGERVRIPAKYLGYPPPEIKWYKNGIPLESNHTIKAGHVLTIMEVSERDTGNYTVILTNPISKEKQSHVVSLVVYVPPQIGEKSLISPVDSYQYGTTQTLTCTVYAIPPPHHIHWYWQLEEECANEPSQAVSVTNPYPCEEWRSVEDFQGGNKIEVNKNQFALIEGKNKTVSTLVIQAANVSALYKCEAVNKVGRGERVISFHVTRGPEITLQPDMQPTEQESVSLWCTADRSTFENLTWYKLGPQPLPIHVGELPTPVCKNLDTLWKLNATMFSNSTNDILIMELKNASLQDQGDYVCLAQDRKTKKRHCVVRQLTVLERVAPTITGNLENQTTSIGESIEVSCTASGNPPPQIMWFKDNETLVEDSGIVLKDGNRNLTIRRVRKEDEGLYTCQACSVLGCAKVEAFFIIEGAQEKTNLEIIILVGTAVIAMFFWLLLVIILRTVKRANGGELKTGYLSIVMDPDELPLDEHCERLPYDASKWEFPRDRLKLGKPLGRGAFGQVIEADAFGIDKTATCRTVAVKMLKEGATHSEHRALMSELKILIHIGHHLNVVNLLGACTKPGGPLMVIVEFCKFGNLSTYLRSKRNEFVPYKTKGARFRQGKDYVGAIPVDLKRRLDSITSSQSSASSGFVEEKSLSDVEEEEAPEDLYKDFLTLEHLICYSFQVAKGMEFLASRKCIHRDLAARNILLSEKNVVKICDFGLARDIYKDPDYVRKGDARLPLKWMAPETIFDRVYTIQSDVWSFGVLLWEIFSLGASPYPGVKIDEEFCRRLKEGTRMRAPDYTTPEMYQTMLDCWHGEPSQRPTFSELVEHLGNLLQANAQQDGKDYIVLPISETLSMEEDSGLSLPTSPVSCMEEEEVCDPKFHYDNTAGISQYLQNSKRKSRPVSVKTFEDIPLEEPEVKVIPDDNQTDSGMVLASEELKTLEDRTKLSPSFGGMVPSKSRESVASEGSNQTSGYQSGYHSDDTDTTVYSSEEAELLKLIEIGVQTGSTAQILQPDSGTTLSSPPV

CNC(=O)c1cc(Oc2ccc3[nH]c(Nc4ccc(C(F)(F)F)c(Cl)c4)nc3c2)ccn1 [II]
pKi: 8.06
